Measured values reported in ChEMBL document CHEMBL1795333, “Extraction of tacit knowledge from large ADME data sets via pairwise analysis” (Bioorg Med Chem, 2011).

Assay: Apparent intrinsic clearance in human liver microsomes
Type: ADME, Microsome

Row | microsomal CLint [µL/min/mg] | Compound
1 | 11 | CC1CCN(C(=O)C2CCOC2)CC1N(C)c1ncnc2[nH]ccc12 (centres undefined)
2 | 8 | CC1CCN(C(=O)CS(C)(=O)=O)CC1N(C)c1ncnc2[nH]ccc12 (centres undefined)
3 | 16 | CC1CCN(C(=O)CC(F)(F)F)CC1N(C)c1ncnc2[nH]ccc12 (centres undefined)
4 | 10 | C[C@@H]1CCN(C(=O)CC#N)C[C@@H]1N(C)c1ncnc2[nH]ccc12 [TOFACITINIB]
